Source: US20040003424A1, “Transgenic cardiomyocytes with controlled proliferation and differentiation” (Board of Regents, The University of Texas System, priority 2002, published 2004)
No end group written: not given here.

Legend:
Assay type in all cases: cell-based, mouse
[1] = tested on: NkL-TAg cells; experiment: Induction of differentiation of NkL-TAg cells, sarcomeric α-actinin immunocytochemistry; conditions: for sarcomere formation as assessed by α-actinin immunocytochemistry: NkL-TAg cells prior to depletion of TAg; for induction of sarcomere formation: NkL-TAg cells after removal of TAg, in differentiation medium (5% horse serum, insulin, transferrin, selenium)
Procedure: (§1) Cell Culture. Cells were isolated from sub-endocardial tumor-like structures in the hearts of transgenic mice as previously described with some modifications (Paradis et al, 1996). Briefly, dissected tissues were minced and dissociated using an enzyme mix containing 0.2% […] (Worthington) and 0.6 mg/ml of pancreatin (Sigma). Cardiac cells derived from Nk-TAg and NkL-TAg mice were maintained in DMEM/F12 media supplemented with 100 IU/ml penicillin, 100 μg/ml streptomycin, 2 mM Lglutamine, and 10% fetal bovine serum (FBS) on plates coated with […] fibronectin and 0.1% 2 gelatin. Cloning cylinders were used to harvest cell clones. Cell growth curves were generated by plating 1.5×10^5 or 2×10^5 cells (as indicated) in growth medium onto 100 mm plates and counting total cell number every 24 hours for 5 days. Differentiation medium contains DMEM/F12 supplemented with 100 IU/ml penicillin, 100 μg/ml streptomycin, 2 mM L-glutamine, 5% heat inactivated horse serum, […], […] and 6.7 ng/ml sodium selenite.
Histochemical Analysis. Heart tissue was fixed in 10% phosphate-buffered formalin and stained with hematoxylin-eosin. Nk-TAg and NkL-TAg cells were cultured on coverslips and fixed for 10 minutes with either −20° C. methanol or 4% paraformaldehyde for immunohistochemistry. Blocking was performed by incubating fixed cells with 1.5% bovine serum albumin and 10% normal goat serum in PBS for 20 minutes. […] Secondary antibodies conjugated to either FITC or Texas Red (1:200, Vector Labs) were diluted in PBS and incubated for 30 minutes at room temperature. In some cases, nuclei were co-stained with DAPI (10 mg/ml) for 1 minute. Coverslips were mounted with Vectashield (Vector Laboratories) and fluorescence or confocal images were captured using Leica DMRXE or Zeiss 3.95 microscopes, respectively.
Viral Infection. Cells were infected with recombinant adenoviruses (Ad) at a multiplicity of infection (MOI) of 100 for 3 to 12 hrs. The medium was replaced with growth medium, and NkL-TAg cells were cultured for the indicated times before analyses. Recombinant adenoviruses were obtained from the following sources: Ad-Cre recombinase (Ad-Cre) was provided by Dr. Frank Graham (McMaster University) (Anton and Graham, 1995); GATA4 (Ad-GATA4), Nkx2.5 (Ad-Nkx2.5), MEK6 (Ad-MEK6), and GFP (Ad-GFP) were generated using the “Easy-Track” system as described (He et al., 1998); antisense HDAC4 and HDAC5 (Ad-HDAC4 or 5), expressing coding regions of HDAC genes in reverse orientation, were provided by Chun Zhang; MEF2C (Ad-MEF2C) was provided by Rebekka Nicol (HDAC 4/5 and MEF2c viruses were generated using pAC-CMV vector); constitutively active calcineurin (Ad-CnA), IGF-I receptor (Ad-IGFI), constitutively active CaMKI (Ad-CaMKI), β-galactosidase (Ad-LacZ) were generated by Dr. Robert Gerard (UT Southwestern) and were constructed using an in vitro Cre-lox recombination system (Aoki et al., 1999; Ng et al. 1999).

[2] = tested on: Nk-TAg cells; experiment: α-actinin immunohistochemistry and sarcomere assembly in Nk-TAg cells; conditions: for assembly of sarcomeres: hypertrophic agents added (20 nM ET-1, 100 mM [sic] PE, 1 mM [sic] angiotensin II)
Procedure: Histochemical Analysis. Heart tissue was fixed in 10% phosphate-buffered formalin and stained with hematoxylin-eosin. Nk-TAg and NkL-TAg cells were cultured on coverslips and fixed for 10 minutes with either −20° C. methanol or 4% paraformaldehyde for immunohistochemistry. Blocking was performed by incubating fixed cells with 1.5% bovine serum albumin and 10% normal goat serum in PBS for 20 minutes. Primary antibodies were incubated for 30-60 minutes in 1.5% bovine serum albumin in PBS as follows: monoclonal anti-myosin (smooth) (1:100, Sigma), polyclonal antimyosin (skeletal) (1:100, Sigma), monoclonal anti-α-smooth muscle actin (1:100, Sigma), monoclonal anti-skeletal myosin (slow) (1:100, Sigma), polyclonal anti-connexin 43 (1:100, Sigma), monoclonal anti-α-sarcomeric actin clone 5C5 (1:100, Sigma), monoclonal anti-desmin (1:100, Sigma), monoclonal anti-calponin (1:100, Sigma), monoclonal anti-α-actinin (sarcomeric) clone EA-53 (1:200, Sigma), monoclonal anti-SV40 T antigen (1:100, Santa Cruz). Secondary antibodies conjugated to either FITC or Texas Red (1:200, Vector Labs) were diluted in PBS and incubated for 30 minutes at room temperature. In some cases, nuclei were co-stained with DAPI (10 mg/ml) for 1 minute. Coverslips were mounted with Vectashield (Vector Laboratories) and fluorescence or confocal images were captured using Leica DMRXE or Zeiss 3.95 microscopes, respectively.
Drug treatment. Drugs were added into cell culture media as indicated at the following concentrations: 100 mM phenylephrine (PE), 10 mM norepinephrine (NE), 10 ng/ml recombinant human transforming growth factor-β1 (TGFβ1) (R&D Systems), 1 mM dynorphin-β (Peninsula Laboratories), 1 mM trans- or cis-retinoic acid (Sigma), 15 ng/ml bone morphogenetic protein (BMP)-2/4 (Genetics Institute, Cambridge, Mass.), 1 mM angiotensin II (R&D Systems), 20 nM endothelin-1 (ET-1) (R&D Systems), 100 ng/ml insulin-like growth factor I (IGF-I) (Roche), 5-azacytidine (Sigma), and 10 mg/ml mitomycin C (Sigma).

[3] = tested on: Nk-TAg cells; experiment: Proliferation of Nk-TAg cardiac cell lines; conditions: drug added to the growth medium; mitomycin C 10 mg/ml as printed
Procedure: as §1
Drug treatment. […]

| Compound | sarcomere formation as assessed by α-actinin immunocytochemistry [1] | further results |
| --- | --- | --- |
| Nc1ncn([C@@H]2O[C@H](CO)[C@@H](O)[C@H]2O)c(=O)n1 [5-azacytidine] | no effect |  |
| NC[C@H](O)c1ccc(O)c(O)c1 [NE, norepinephrine] | no effect | induction of sarcomere formation [1]: further induction of sarcomere formation in some cells |
| CNC[C@H](O)c1cccc(O)c1 [PE, phenylephrine] | no effect | assembly of sarcomeres [2]: did not further induce the assembly of sarcomeres; induction of sarcomere formation [1]: further induction of sarcomere formation in some cells |
| Cn1c(=O)c2c(ncn2C)n(C)c1=O [caffeine] | no effect |  |
| CC1=C(/C=C/C(C)=C/C=C/C(C)=C\C(=O)O)C(C)(C)CCC1 [cis-retinoic acid] | no effect |  |
| C[C@H](CCC(=O)O)C[C@H](C)C[C@H](C)C(=O)/C=C(\O)[C@H](C)C[C@H](C)C/C=C/[C@@H](C)[C@@H](O)[C@@H](C)[C@@H](O)C[C@@H]1CC[C@@](C)([C@H]2CC[C@@](C)([C@@H](C)O)O2)O1 [ionomycin] | no effect |  |
| CO[C@@]12[C@H](COC(N)=O)C3=C(C(=O)C(C)=C(N)C3=O)N1C[C@@H]1N[C@@H]12 [mitomycin C] |  | proliferation of the Nk-TAg cells [3]: abated proliferation; expression of α-actinin ([2]; immunohistochemistry, in the cytoplasm as unassembled Z-lines, mitomycin C 10 mg/ml as printed): enhanced expression of α-actinin |
| [Cl-].[K+] [potassium chloride] | no effect |  |
| CC1=C(/C=C/C(C)=C/C=C/C(C)=C/C(=O)O)C(C)(C)CCC1 [trans-retinoic acid] | no effect |  |
| IGF-I: insulin-like growth factor I (Roche) | no effect |  |
| TGFb1: recombinant human transforming growth factor-β1 (R&D Systems) | no effect |  |
| angiotensin II (DRVYIHPF; Angiotensin-2; UniProt P01019 25-32, looked up) |  | assembly of sarcomeres [2]: did not further induce the assembly of sarcomeres |
| bFGF: basic fibroblast growth factor | no effect |  |
| dynorphin-β | no effect |  |
| endothelin-1 (CSCSSLMDKECVYFCHLDIIW; ends and bridges not checked; cysteine pairing not given here; UniProt P05305 53-73, looked up) [ET-1] |  | assembly of sarcomeres [2]: did not further induce the assembly of sarcomeres |
